Laboratory results reported in patent publication US8178668B2, “2-aminopyridine kinase inhibitors” (OSI Pharmaceuticals, LLC, priority 2008, dated 2012).
pIC50: −log10 of the molar value.

What was measured:
[1] = biological target: RON (human) (Homo sapiens, UniProt Q04912); assay: RON kinase AlphaScreen assay (Km of ATP); type: biochemical; conditions: ATP at Km; at least duplicate experiments
Method in brief: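 Human RON phosphorylated biotinylated poly(Glu,Tyr) (200 ng/μL) at Km ATP in 50 mM HEPES pH 7.4, 12.5 mM MgCl2, 1% glycerol, 0.334 mM vanadate, 1% DMSO. Reaction ran 30 min at RT after enzyme addition. Product was detected by AlphaScreen with PT66 beads after 1 h.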

[2] = biological target: MET (human) (Homo sapiens, UniProt P08581); assay: MET kinase AlphaScreen assay (Km of ATP); type: biochemical; conditions: ATP at Km; at least duplicate experiments
Method in brief: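 Biotinylated poly(Glu,Tyr) (200 ng/μL) phosphorylated by MET with ATP at an enzyme-optimized level, in 50 mM HEPES pH 7.4 with Mg2+/Mn2+ and vanadate, 1% DMSO. Reaction runs 60 min at RT. PT66 AlphaScreen donor/acceptor beads are added and signal is read after 1 h.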

RON (human), sequence (Q04912 25-1400): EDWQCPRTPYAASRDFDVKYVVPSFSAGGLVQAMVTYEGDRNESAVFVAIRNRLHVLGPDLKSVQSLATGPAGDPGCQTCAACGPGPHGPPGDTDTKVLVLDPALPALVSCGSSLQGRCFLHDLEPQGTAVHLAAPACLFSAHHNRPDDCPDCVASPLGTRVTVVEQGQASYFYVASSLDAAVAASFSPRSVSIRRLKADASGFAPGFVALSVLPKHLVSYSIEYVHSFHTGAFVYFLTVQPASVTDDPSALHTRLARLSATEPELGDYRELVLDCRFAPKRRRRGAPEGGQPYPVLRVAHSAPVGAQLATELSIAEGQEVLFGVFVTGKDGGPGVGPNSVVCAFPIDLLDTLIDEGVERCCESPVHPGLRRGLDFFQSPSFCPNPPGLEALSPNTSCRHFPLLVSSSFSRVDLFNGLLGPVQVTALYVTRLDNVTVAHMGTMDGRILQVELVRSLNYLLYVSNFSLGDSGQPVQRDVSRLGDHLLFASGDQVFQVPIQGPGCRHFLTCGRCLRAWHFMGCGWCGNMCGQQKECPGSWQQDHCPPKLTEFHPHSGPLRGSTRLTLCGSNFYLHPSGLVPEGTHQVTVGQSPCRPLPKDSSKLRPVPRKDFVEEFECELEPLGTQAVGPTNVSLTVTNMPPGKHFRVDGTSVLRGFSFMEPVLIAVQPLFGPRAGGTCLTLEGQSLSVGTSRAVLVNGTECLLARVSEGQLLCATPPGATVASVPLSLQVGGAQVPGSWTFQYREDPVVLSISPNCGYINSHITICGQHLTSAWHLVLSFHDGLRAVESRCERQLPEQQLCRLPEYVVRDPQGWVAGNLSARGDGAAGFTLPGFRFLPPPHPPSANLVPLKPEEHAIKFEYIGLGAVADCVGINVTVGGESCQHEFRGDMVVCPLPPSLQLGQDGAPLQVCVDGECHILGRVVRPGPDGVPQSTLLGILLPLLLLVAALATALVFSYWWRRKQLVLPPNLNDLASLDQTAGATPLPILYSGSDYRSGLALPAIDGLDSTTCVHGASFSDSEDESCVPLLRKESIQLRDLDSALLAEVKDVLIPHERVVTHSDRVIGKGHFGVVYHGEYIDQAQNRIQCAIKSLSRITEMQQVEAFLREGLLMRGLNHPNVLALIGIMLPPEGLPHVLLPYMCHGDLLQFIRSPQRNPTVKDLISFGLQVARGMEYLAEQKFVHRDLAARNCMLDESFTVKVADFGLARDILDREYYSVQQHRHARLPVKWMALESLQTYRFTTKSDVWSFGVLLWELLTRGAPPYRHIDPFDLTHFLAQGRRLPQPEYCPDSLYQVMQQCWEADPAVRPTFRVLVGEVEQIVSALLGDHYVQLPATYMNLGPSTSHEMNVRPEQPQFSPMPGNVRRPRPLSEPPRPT
MET (human), sequence (P08581 25-1390): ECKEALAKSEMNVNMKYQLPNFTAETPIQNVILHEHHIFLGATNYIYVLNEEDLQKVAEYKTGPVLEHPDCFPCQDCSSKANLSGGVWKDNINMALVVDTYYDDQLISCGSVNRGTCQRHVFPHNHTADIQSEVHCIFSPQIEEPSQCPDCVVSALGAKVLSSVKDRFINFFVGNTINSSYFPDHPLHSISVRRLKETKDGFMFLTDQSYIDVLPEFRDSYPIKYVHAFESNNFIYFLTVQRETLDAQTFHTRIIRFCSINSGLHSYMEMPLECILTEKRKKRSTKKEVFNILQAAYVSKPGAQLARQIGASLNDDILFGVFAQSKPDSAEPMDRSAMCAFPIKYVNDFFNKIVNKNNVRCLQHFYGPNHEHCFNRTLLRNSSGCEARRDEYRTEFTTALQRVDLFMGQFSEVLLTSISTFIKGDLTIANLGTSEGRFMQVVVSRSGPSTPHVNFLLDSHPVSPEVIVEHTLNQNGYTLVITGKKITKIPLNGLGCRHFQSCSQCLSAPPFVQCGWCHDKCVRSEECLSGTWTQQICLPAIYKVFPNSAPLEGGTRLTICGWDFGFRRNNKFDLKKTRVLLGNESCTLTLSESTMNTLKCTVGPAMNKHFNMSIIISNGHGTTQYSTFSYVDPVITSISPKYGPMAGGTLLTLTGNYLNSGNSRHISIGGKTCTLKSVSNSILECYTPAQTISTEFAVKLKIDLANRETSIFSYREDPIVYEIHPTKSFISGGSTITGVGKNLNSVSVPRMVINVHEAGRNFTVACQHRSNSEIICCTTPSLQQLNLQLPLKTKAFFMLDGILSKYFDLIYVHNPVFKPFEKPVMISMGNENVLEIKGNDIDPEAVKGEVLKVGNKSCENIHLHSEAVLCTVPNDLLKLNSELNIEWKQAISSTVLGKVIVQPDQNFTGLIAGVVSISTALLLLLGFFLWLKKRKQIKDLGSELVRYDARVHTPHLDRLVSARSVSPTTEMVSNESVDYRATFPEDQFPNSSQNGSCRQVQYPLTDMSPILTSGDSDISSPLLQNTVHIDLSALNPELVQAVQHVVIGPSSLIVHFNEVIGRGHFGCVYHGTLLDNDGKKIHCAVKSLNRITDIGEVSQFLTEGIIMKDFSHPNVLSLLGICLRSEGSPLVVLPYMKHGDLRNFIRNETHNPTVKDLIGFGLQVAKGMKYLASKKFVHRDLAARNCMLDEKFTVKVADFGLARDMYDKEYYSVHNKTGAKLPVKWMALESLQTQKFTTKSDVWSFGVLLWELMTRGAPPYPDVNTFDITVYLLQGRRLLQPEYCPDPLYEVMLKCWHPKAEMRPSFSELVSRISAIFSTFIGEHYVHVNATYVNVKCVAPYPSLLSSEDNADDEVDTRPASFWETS

Row | pIC50 [1] | pIC50 [2] | SMILES
1 | 4.70 to 6.00 | 4.70 to 6.00 | CN(C)C(=O)c1ccc(-c2cnc(N)c(-c3nc4ccccc4s3)c2)cc1 [Example 183, 4-(6-Amino-5-benzothiazol-2-ylpyridin-3-yl)-N,N-dimethylbenzamide]
2 | 4.70 to 6.00 | 4.70 to 6.00 | CN1CCN(C(=O)c2cccc(-c3cnc(N)c(-c4nc5ccccc5s4)c3)c2)CC1 [Example 184, [3-(6-Amino-5-benzothiazol-2-ylpyridin-3-yl)phenyl]-(4-methylpiperazin-1-yl)methanone]
3 | 4.70 to 6.00 | 6.00 to 7.00 | CN(C)CCNC(=O)c1ccc(-c2cnc(N)c(-c3nc4ccccc4s3)c2)cc1 [Example 185, 4-(6-Amino-5-benzothiazol-2-ylpyridin-3-yl)-N-(2-dimethylaminoethyl)benzamide]
4 | < 4.70 | 4.70 to 6.00 | CN(C)C(=O)c1cccc(-c2cnc(N)c(-c3nc4ccccc4s3)c2)c1 [Example 186, 3-(6-Amino-5-benzothiazol-2-ylpyridin-3-yl)-N,N-dimethylbenzamide]
5 | 4.70 to 6.00 | 4.70 to 6.00 | CN(C)CCNC(=O)c1cccc(-c2cnc(N)c(-c3nc4ccccc4s3)c2)c1 [Example 187, 3-(6-Amino-5-benzothiazol-2-ylpyridin-3-yl)-N-(2-dimethylaminoethyl)benzamide]
6 | 4.70 to 6.00 | 4.70 to 6.00 | CN(C)CCCOc1ccc(-c2cnc(N)c(-c3nc4ccccc4s3)c2)cn1 [Example 188, 5-Benzothiazol-2-yl-6′-(3-dimethylaminopropoxy)-[3,3′]bipyridinyl-6-ylamine]
7 | 4.70 to 6.00 | 4.70 to 6.00 | Nc1ncc(-c2ccc(C(=O)N3CCOCC3)cc2)cc1-c1nc2ccccc2s1 [Example 189, [4-(6-Amino-5-benzothiazol-2-ylpyridin-3-yl)phenyl]morpholin-4-ylmethanone]
8 | < 4.70 | 4.70 to 6.00 | NC(=O)c1ccc(-c2cnc(N)c(-c3nc4ccccc4s3)c2)cc1 [Example 190, 4-(6-Amino-5-benzothiazol-2-ylpyridin-3-yl)benzamide]
9 | < 4.70 | < 4.70 | CCN(CC)C(=O)c1ccc(-c2cnc(N)c(-c3nc4ccccc4s3)c2)cc1 [Example 191, 4-(6-Amino-5-benzothiazol-2-ylpyridin-3-yl)-N,N-diethylbenzamide]
10 | 4.70 to 6.00 | 4.70 to 6.00 | Nc1ncc(-c2cccc(C(=O)NCc3ccco3)c2)cc1-c1nc2ccccc2s1 [Example 192, 3-(6-Amino-5-benzothiazol-2-ylpyridin-3-yl)-N-furan-2-ylmethylbenzamide]
11 | 4.70 to 6.00 | 4.70 to 6.00 | Nc1ncc(-c2ccc(C(=O)NCc3ccco3)cc2)cc1-c1nc2ccccc2s1 [Example 193, 4-(6-Amino-5-benzothiazol-2-ylpyridin-3-yl)-N-furan-2-ylmethylbenzamide]
12 | < 4.70 | < 4.70 | CNC(=O)c1cccc(-c2cnc(N)c(-c3nc4ccccc4s3)c2)c1 [Example 194, 3-(6-Amino-5-benzothiazol-2-ylpyridin-3-yl)-N-methylbenzamide]
13 | < 4.70 | < 4.70 | Nc1ncc(-c2ccc(C(=O)N3CCCCC3)cc2)cc1-c1nc2ccccc2s1 [Example 195, [4-(6-Amino-5-benzothiazol-2-ylpyridin-3-yl)phenyl]piperidin-1-ylmethanone]
14 | 4.70 to 6.00 | 4.70 to 6.00 | NC(=O)c1cccc(-c2cnc(N)c(-c3nc4ccccc4s3)c2)c1 [Example 196, 3-(6-Amino-5-benzothiazol-2-ylpyridin-3-yl)benzamide]
15 | 4.70 to 6.00 | 4.70 to 6.00 | Nc1ncc(-c2cnn(CCN3CCOCC3)c2)cc1-c1nc2ccccc2s1 [Example 197, 3-Benzothiazol-2-yl-5-[1-(2-morpholin-4-ylethyl)-1H-pyrazol-4-yl]pyridin-2-ylamine]
16 | < 4.70 | 4.70 to 6.00 | Nc1ncc(-c2ccc(C(=O)NC3CC3)cc2)cc1-c1nc2ccccc2s1 [Example 198, 4-(6-Amino-5-benzothiazol-2-ylpyridin-3-yl)-N-cyclopropylbenzamide]
17 | 4.70 to 6.00 | 4.70 to 6.00 | CNC(=O)c1ccc(-c2cnc(N)c(-c3nc4ccccc4s3)c2)cc1 [Example 199, 4-(6-Amino-5-benzothiazol-2-ylpyridin-3-yl)-N-methylbenzamide]
18 | 4.70 to 6.00 | 4.70 to 6.00 | Nc1ncc(-c2ccc(C(=O)O)cc2)cc1-c1nc2ccccc2s1 [Example 201, 4-(6-Amino-5-benzothiazol-2-ylpyridin-3-yl)-benzoic acid]

Row | pIC50 [1] | pIC50 [2] | SMILES
19 | 4.70 to 6.00 | 6.00 to 7.00 | Nc1ncc(-c2ccc(C(=O)O)nc2)cc1-c1nc2ccccc2s1 [Example 202, 6′-Amino-5′-benzothiazol-2-yl-[3,3′]bipyridinyl-6-carboxylic acid]
20 | < 4.70 | 4.70 to 6.00 | Nc1ncc(-c2cccc(C(=O)N3CCCC3)c2)cc1-c1nc2ccccc2s1 [Example 204, [3-(6-Amino-5-benzothiazol-2-ylpyridin-3-yl)phenyl]pyrrolidin-1-ylmethanone]
21 | 4.70 to 6.00 | 4.70 to 6.00 | CC(=O)NCCNC(=O)c1cccc(-c2cnc(N)c(-c3nc4ccccc4s3)c2)c1 [Example 205, N-(2-Acetylaminoethyl)-3-(6-amino-5-benzothiazol-2-ylpyridin-3-yl)benzamide]
22 | < 4.70 | 4.70 to 6.00 | Nc1ncc(-c2cccc(C(=O)N3CCCCC3)c2)cc1-c1nc2ccccc2s1 [Example 206, [3-(6-Amino-5-benzothiazol-2-ylpyridin-3-yl)phenyl]piperidin-1-ylmethanone]
23 | 4.70 to 6.00 | 4.70 to 6.00 | CCN(CC)CCNC(=O)c1cccc(-c2cnc(N)c(-c3nc4ccccc4s3)c2)c1 [Example 207, 3-(6-Amino-5-benzothiazol-2-ylpyridin-3-yl)-N-(2-diethylaminoethyl)benzamide]
24 | 4.70 to 6.00 | 6.00 to 7.00 | C[C@@H]1CN(C(=O)c2cccc(-c3cnc(N)c(-c4nc5ccccc5s4)c3)c2)C[C@H](C)N1 [Example 208, [3-(6-Amino-5-benzothiazol-2-ylpyridin-3-yl)phenyl]-(cis-3,5-dimethylpiperazin-1-yl)methanone]
25 | 4.70 to 6.00 | 4.70 to 6.00 | Nc1ncc(-c2cccc(C(=O)NCCCN3CCCC3)c2)cc1-c1nc2ccccc2s1 [Example 209, 3-(6-Amino-5-benzothiazol-2-ylpyridin-3-yl)-N-(3-pyrrolidin-1-ylpropyl)benzamide]
26 | 4.70 to 6.00 | 6.00 to 7.00 | CN1CCC(N(C)C(=O)c2cccc(-c3cnc(N)c(-c4nc5ccccc5s4)c3)c2)CC1 [Example 210, 3-(6-Amino-5-benzothiazol-2-ylpyridin-3-yl)-N-methyl-N-(1-methylpiperidin-4-yl)benzamide]
27 | 4.70 to 6.00 | 4.70 to 6.00 | Nc1ncc(-c2cccc(C(=O)N3CCN(CC(=O)N4CCCC4)CC3)c2)cc1-c1nc2ccccc2s1 [Example 211, 2-{4-[3-(6-Amino-5-benzothiazol-2-ylpyridin-3-yl)benzoyl]piperazin-1-pyrrolidin-1-yl}-1-ylethanone]
28 | < 4.70 | 4.70 to 6.00 | CC(=O)N1CCN(C(=O)c2cccc(-c3cnc(N)c(-c4nc5ccccc5s4)c3)c2)CC1 [Example 212, 1-{4-[3-(6-Amino-5-benzothiazol-2-ylpyridin-3-yl)benzoyl]piperazin-1-yl}ethanone]
29 | 4.70 to 6.00 | 4.70 to 6.00 | Nc1ncc(-c2cccc(C(=O)N3CCCC(O)C3)c2)cc1-c1nc2ccccc2s1 (stereo not drawn) [Example 213, [3-(6-Amino-5-benzothiazol-2-ylpyridin-3-yl)phenyl]-(3-hydroxypiperidin-1-yl)methanone]
30 | < 4.70 | 4.70 to 6.00 | C[C@@H]1CN(C(=O)c2cccc(-c3cnc(N)c(-c4nc5ccccc5s4)c3)c2)C[C@H](C)O1 [Example 214, [3-(6-Amino-5-benzothiazol-2-ylpyridin-3-yl)phenyl]-(cis-2,6-dimethylmorpholin-4-yl)methanone]
31 | 4.70 to 6.00 | 4.70 to 6.00 | CN(C)C(=O)CN1CCN(C(=O)c2cccc(-c3cnc(N)c(-c4nc5ccccc5s4)c3)c2)CC1 [Example 215, 2-{4-[3-(6-Amino-5-benzothiazol-2-ylpyridin-3-yl)benzoyl]piperazin-1-yl}-N,N-dimethylacetamide]
32 | < 4.70 | < 4.70 | COCCN(CCOC)C(=O)c1cccc(-c2cnc(N)c(-c3nc4ccccc4s3)c2)c1 [Example 216, 3-(6-Amino-5-benzothiazol-2-ylpyridin-3-yl)-N,N-bis-(2-methoxyethyl)benzamide]
33 | 4.70 to 6.00 | 6.00 to 7.00 | Nc1ncc(-c2cccc(C(=O)N3CCC(N4CCCC4)CC3)c2)cc1-c1nc2ccccc2s1 [Example 217, [3-(6-Amino-5-benzothiazol-2-ylpyridin-3-yl)phenyl]-(4-pyrrolidin-1-ylpiperidin-1-yl)methanone]
34 | 4.70 to 6.00 | 6.00 to 7.00 | CN1CCC(NC(=O)c2cccc(-c3cnc(N)c(-c4nc5ccccc5s4)c3)c2)CC1 [Example 218, 3-(6-Amino-5-benzothiazol-2-ylpyridin-3-yl)-N-(1-methylpiperidin-4-yl)benzamide]
35 | < 4.70 | 6.00 to 7.00 | NC(=O)C1CCN(C(=O)c2cccc(-c3cnc(N)c(-c4nc5ccccc5s4)c3)c2)CC1 [Example 219, 1-[3-(6-Amino-5-benzothiazol-2-ylpyridin-3-yl)benzoyl]piperidine-4-carboxylic acid amide]
36 | 4.70 to 6.00 | 6.00 to 7.00 | CN(C)CCN(C)C(=O)c1cccc(-c2cnc(N)c(-c3nc4ccccc4s3)c2)c1 [Example 220, 3-(6-Amino-5-benzothiazol-2-ylpyridin-3-yl)-N-(2-dimethylaminoethyl)-N-methylbenzamide]
